Source: patent US8143227B2, “Azithromycin for treatment of skin disorders” (priority 2008, dated 2012)

Columns and labels:
moderate to severe acne = assay: Efficacy against acne (lesion counts), 40/80/120 mg per day; assay type: in vivo, human
Experimental: The subjects of Example 1 were evaluated for efficacy of each dosage (40 mg, 80 mg, or 120 mg per day) in treating moderate to severe acne following treatment for 6 weeks. Before starting the treatment protocol, the number of facial non-inflammatory lesions (open and closed comedones), inflammatory lesions (papules, pustules, and nodules), and nodules were counted. The numbers of these lesions were counted again at day 21 of treatment and at day 42. The % decrease from Day 0 was calculated as the mean of the differences for each of the parameters (non-inflammatory lesions, inflammatory lesion and nodules) for each individual subject on Day 21 and Day 42. The results, including average lesion counts and efficacy assessment by percent decrease in lesion counts, are shown for the 40 mg, 80 mg, and 120 mg group, respectively, in Tables 4, 5, and 6.

[1] = Azithromycin levels in skin (follicular biopsy); assay type: in vivo, human; conditions: for Skin Concentration (median): follicular biopsy
Experimental: Standardized follicular biopsy samples, representative of the pilosebaceous unit of the skin, were obtained from the upper back from each of the subjects of Example 1 on study days 0, 21, 42, and 70. The samples were analyzed to determine the tissue level of azithromycin in each biopsy sample.

acne [2] = conditions: 500 mg three times per week; Kapadia 2004; cited from earlier work
acne [3] = conditions: Kus 2005, cited from earlier work
[4] = 40 mg/day for 6 weeks, Day 0 (before treatment)
[5] = 80 mg/day for 6 weeks, Day 0 (before treatment)
[6] = 120 mg/day for 6 weeks, Day 0 (before treatment)

In the case of `CC[C@H]1OC(=O)[C@H](C)[C@@H](O[C@H]2C[C@@](C)(OC)[C@@H](O)[C@H](C)O2)[C@H](C)[C@@H](O[C@@H]2O[C@H](C)C[C@H](N(C)C)[C@H]2O)[C@](C)(O)C[C@@H](C)CN(C)[C@H](C)[C@@H](O)[C@]1(C)O` [Azithromycin, 9-deoxo-9a-aza-9a-methyl-9a-homoerythromycin A], the “Inflammatory lesions (average count)” value (moderate to severe acne; [4]) was 30.1, the “Nodules (average count)” value (moderate to severe acne; [4]) was 5.2 and the “Non-inflammatory lesions (average count)” value (moderate to severe acne; [4]) was 36.5. For the same compound, the “Inflammatory lesions % Decrease from Day 0” value (moderate to severe acne; 40 mg/day for 6 weeks, Day 21) was 51.5%, the “Inflammatory lesions (average count)” value (moderate to severe acne; 40 mg/day for 6 weeks, Day 21) was 14.4 and the “Nodules % Decrease from Day 0” value (moderate to severe acne; 40 mg/day for 6 weeks, Day 21) was 62.4%. For the same compound, the “Nodules (average count)” value (moderate to severe acne; 40 mg/day for 6 weeks, Day 21) was 2.2, the “Non-inflammatory lesions % Decrease from Day 0” value (moderate to severe acne; 40 mg/day for 6 weeks, Day 21) was 30.4% and the “Non-inflammatory lesions (average count)” value (moderate to severe acne; 40 mg/day for 6 weeks, Day 21) was 23.9. For the same compound, the “Inflammatory lesions % Decrease from Day 0” value (moderate to severe acne; 40 mg/day for 6 weeks, Day 42) was 54.2%, the “Inflammatory lesions (average count)” value (moderate to severe acne; 40 mg/day for 6 weeks, Day 42) was 13.8 and the “Nodules % Decrease from Day 0” value (moderate to severe acne; 40 mg/day for 6 weeks, Day 42) was 82.2%. The “Nodules (average count)” value (moderate to severe acne; 40 mg/day for 6 weeks, Day 42) was 1.2, the “Non-inflammatory lesions % Decrease from Day 0” value (moderate to severe acne; 40 mg/day for 6 weeks, Day 42) was 38.9% and the “Non-inflammatory lesions (average count)” value (moderate to severe acne; 40 mg/day for 6 weeks, Day 42) was 21.5. For the same compound, the “Inflammatory lesions (average count)” value (moderate to severe acne; [5]) was 37.0, the “Nodules (average count)” value (moderate to severe acne; [5]) was 5.5 and the “Non-inflammatory lesions (average count)” value (moderate to severe acne; [5]) was 38.7. The “Inflammatory lesions % Decrease from Day 0” value (moderate to severe acne; 80 mg/day for 6 weeks, Day 21) was 44.7%, the “Inflammatory lesions (average count)” value (moderate to severe acne; 80 mg/day for 6 weeks, Day 21) was 19.8 and the “Nodules % Decrease from Day 0” value (moderate to severe acne; 80 mg/day for 6 weeks, Day 21) was 72.8%. The “Nodules (average count)” value (moderate to severe acne; 80 mg/day for 6 weeks, Day 21) was 1.5, the “Non-inflammatory lesions % Decrease from Day 0” value (moderate to severe acne; 80 mg/day for 6 weeks, Day 21) was 34.7% and the “Non-inflammatory lesions (average count)” value (moderate to severe acne; 80 mg/day for 6 weeks, Day 21) was 24.9. For the same compound, the “Inflammatory lesions % Decrease from Day 0” value (moderate to severe acne; 80 mg/day for 6 weeks, Day 42) was 53.7%, the “Inflammatory lesions (average count)” value (moderate to severe acne; 80 mg/day for 6 weeks, Day 42) was 17.0 and the “Nodules % Decrease from Day 0” value (moderate to severe acne; 80 mg/day for 6 weeks, Day 42) was 74.2%. For the same compound, the “Nodules (average count)” value (moderate to severe acne; 80 mg/day for 6 weeks, Day 42) was 1.3, the “Non-inflammatory lesions % Decrease from Day 0” value (moderate to severe acne; 80 mg/day for 6 weeks, Day 42) was 24.7% and the “Non-inflammatory lesions (average count)” value (moderate to severe acne; 80 mg/day for 6 weeks, Day 42) was 29.3. For the same compound, the “Inflammatory lesions (average count)” value (moderate to severe acne; [6]) was 31.6, the “Nodules (average count)” value (moderate to severe acne; [6]) was 4.7 and the “Non-inflammatory lesions (average count)” value (moderate to severe acne; [6]) was 37.7. The “Inflammatory lesions % Decrease from Day 0” value (moderate to severe acne; 120 mg/day for 6 weeks, Day 21) was 51.9%, the “Inflammatory lesions (average count)” value (moderate to severe acne; 120 mg/day for 6 weeks, Day 21) was 15.6 and the “Nodules % Decrease from Day 0” value (moderate to severe acne; 120 mg/day for 6 weeks, Day 21) was 78.6%. For the same compound, the “Nodules (average count)” value (moderate to severe acne; 120 mg/day for 6 weeks, Day 21) was 1.0, the “Non-inflammatory lesions % Decrease from Day 0” value (moderate to severe acne; 120 mg/day for 6 weeks, Day 21) was 28.1% and the “Non-inflammatory lesions (average count)” value (moderate to severe acne; 120 mg/day for 6 weeks, Day 21) was 27.8. The “Inflammatory lesions % Decrease from Day 0” value (moderate to severe acne; 120 mg/day for 6 weeks, Day 42) was 52.9%, the “Inflammatory lesions (average count)” value (moderate to severe acne; 120 mg/day for 6 weeks, Day 42) was 14.8 and the “Nodules % Decrease from Day 0” value (moderate to severe acne; 120 mg/day for 6 weeks, Day 42) was 73.7%. The “Nodules (average count)” value (moderate to severe acne; 120 mg/day for 6 weeks, Day 42) was 1.1, the “Non-inflammatory lesions % Decrease from Day 0” value (moderate to severe acne; 120 mg/day for 6 weeks, Day 42) was 38.9% and the “Non-inflammatory lesions (average count)” value (moderate to severe acne; 120 mg/day for 6 weeks, Day 42) was 23.2. For the same compound, the “number of inflammatory acne lesions” value (moderate to severe acne; any of 40, 80, or 120 mg per day, at 21 days and at 42 days) was “marked decrease”, the “number of facial nodules” value (moderate to severe acne; any of 40, 80, or 120 mg, at both 21 and 42 days) was “marked decrease” and the “response of non-inflammatory acne lesions” value (moderate to severe acne; daily treatment at each dosage level tested, 40, 80, or 120 mg) was “responded favorably”. The “resolution of existing nodules” value (moderate to severe acne; examination at 21 days after initiation of treatment, daily administration) was “Complete resolution of existing nodules in several subjects”, the “clearance of azithromycin from the pilosebaceous apparatus” value ([1]; after attaining saturation or near saturation levels) was “more than 28 days” and the “Skin Concentration (median)” value ([1]; 40 mg/day, Day 0) was 0.00 ng/sample. The “Skin Concentration (median)” value ([1]; 40 mg/day, Day 21) was 0.34 ng/sample, the “Skin Concentration (median)” value ([1]; 40 mg/day, Day 42) was 0.59 ng/sample and the “Skin Concentration (median)” value ([1]; 40 mg/day, Day 70 (28 days after last dose)) was 0.00 ng/sample. For the same compound, the “Skin Concentration (median)” value ([1]; 80 mg/day, Day 0) was 0.00 ng/sample, the “Skin Concentration (median)” value ([1]; 80 mg/day, Day 21) was 1.34 ng/sample and the “Skin Concentration (median)” value ([1]; 80 mg/day, Day 42) was 1.68 ng/sample. The “Skin Concentration (median)” value ([1]; 80 mg/day, Day 70 (28 days after last dose)) was 0.47 ng/sample, the “Skin Concentration (median)” value ([1]; 120 mg/day, Day 0) was 0.00 ng/sample and the “Skin Concentration (median)” value ([1]; 120 mg/day, Day 21) was 1.65 ng/sample. The “Skin Concentration (median)” value ([1]; 120 mg/day, Day 42) was 1.99 ng/sample, the “Skin Concentration (median)” value ([1]; 120 mg/day, Day 70 (28 days after last dose)) was 0.50 ng/sample and the “time to effective steady state level of azithromycin in skin” value ([1]; low doses, following commencement of therapy, no initial spike dose) was at most 20 days. The “dosage at which the skin becomes saturated, theorized from the data” value ([1]; theorized from Table 3 data) was “about 95 mg/day”, the “subjects with adverse events” value (acne [2]) was 11% and the treatment of acne (acne [2]) was “successful treatment”. For the same compound, the “efficacy in the treatment of acne” value (acne [3]; 500 mg 3, then 2 consecutive days per week, then once weekly, 4 weeks each) was “as effective as doxycycline” and the “subjects who left the study due to gastrointestinal side effects” value (acne [3]; of 25 subjects administered azithromycin) was “two”.
